Reference: ChEMBL document CHEMBL3868605, “Flavans with potential anti-inflammatory activities from Zephyranthes candida” (Bioorg Med Chem Lett, 2016)

Experiments:
[1] = Antiinflammatory activity in mouse RAW264.7 cells assessed as inhibition of LPS-induced nitric oxide production after 24 hrs in presence of LPS by Griess assay; type: functional, cell-based; conditions: RAW264.7, 24 h
[2] = Cytotoxicity against mouse RAW264.7 cells assessed as cell survival rate at 200 uM after 24 hrs in presence of LPS by MTT assay; type: toxicity; conditions: read-out: Survival
[3] = Cytotoxicity against mouse RAW264.7 cells assessed as cell survival rate at 200 uM after 24 hrs in absence of LPS by MTT assay; type: toxicity; conditions: read-out: Survival

## COc1ccc([C@@H]2CCc3ccc(O[C@@H]4O[C@H](CO)[C@@H](O)[C@H](O)[C@H]4O)cc3O2)cc1O
[1]
  IC50: 21.5 µM
[2]
  viability at 24 h, 200 µM: 116%
[3]
  viability at 24 h, 200 µM: 104%

## COc1ccc([C@@H]2CCc3ccc(O)cc3O2)cc1O[C@@H]1O[C@H](CO)[C@@H](O)[C@H](O)[C@H]1O
[1]
  IC50: 16.1 µM
[2]
  viability at 24 h, 200 µM: 114%
[3]
  viability at 24 h, 200 µM: 123%

## C[C@@H]1C[C@H]2[C@@H]3CCC4=CC(=O)C=C[C@]4(C)[C@@]3(F)[C@@H](O)C[C@]2(C)[C@@]1(O)C(=O)CO [DEXAMETHASONE]
[1]
  IC50: 0.63 µM
[2]
  viability at 24 h, 200 µM: 100%
[3]
  viability at 24 h, 200 µM: 91%

## COc1ccc2c(c1)O[C@H](c1ccccc1)[C@H](O)C2
[1]
  IC50: 17.3 µM
[2]
  viability at 24 h, 200 µM: 104%
[3]
  viability at 24 h, 200 µM: 119%
